One compound from ChEMBL document CHEMBL4411260, “Dual Inhibition of TYK2 and JAK1 for the Treatment of Autoimmune Diseases: Discovery of (( S)-2,2-Difluorocyclopropyl)((1 R,5 S)-3-(2-((1-methyl-1 H-pyrazol-4-yl)amino)pyrimidin-4-yl)-3,8-diazabicyclo[3.2.1]octan-8-yl)methanone (PF-06700841)” (J Med Chem, 2018) can be followed below.

Molecules are shown by their SMILES.

Common to all, as to assay type: ADME, organism-based
Series [1] in a line: AUC (0 to infinity) in Sprague-Dawley rat at 3 mg/kg, po. More on the design: dose 3 mg/kg, time infinity, route oral. The settings on record: in vivo.
Series [2] is described as follows: Cmax in complete freund's adjuvant-induced Lewis rat arthritis model plasma at 10 mg/kg, po qd administered via gavage treated for 7 consecutive days measured after 30 mins post last dose. Also on record: dose 10 mg/kg, route oral.
Series [3] can be described thus: Cmax in Sprague-Dawley rat at 3 mg/kg, po. Also on record: dose 3 mg/kg, route oral. The settings on record: in vivo.
Series [4] is described as follows: Cmax in complete freund's adjuvant-induced Lewis rat arthritis model plasma at 3 mg/kg, po qd administered via gavage treated for 7 consecutive days measured after 30 mins post last dose. More on the design: dose 3 mg/kg, route oral. The settings on record: in vivo, 0.5 h.
Series [5] can be described thus: Cmin in complete freund's adjuvant-induced Lewis rat arthritis model plasma at 3 mg/kg, po qd administered via gavage treated for 7 consecutive days measured after 24 hrs post last dose. The settings on record: read-out: Cmin.
The nature of series [6]: Volume of distribution at steady state in Sprague-Dawley rat at 1 mg/kg, iv or 3 mg/kg, po. The settings on record: in vivo, read-out: Vdss.
A short description of series [7]: Cmin in complete freund's adjuvant-induced Lewis rat arthritis model plasma at 10 mg/kg, po qd administered via gavage treated for 7 consecutive days measured after 24 hrs post last dose. The settings on record: read-out: Cmin.
Series [8] is described as follows: Oral bioavailability in Sprague-Dawley rat at 3 mg/kg. The settings on record: in vivo.
A short description of series [9]: Cmax in complete freund's adjuvant-induced Lewis rat arthritis model plasma at 30 mg/kg, po qd administered via gavage treated for 7 consecutive days measured after 30 mins post last dose. Also on record: dose 30 mg/kg, route oral.
The nature of series [10]: Plasma clearance in Sprague-Dawley rat at 1 mg/kg, iv or 3 mg/kg, po.
The nature of series [11]: Cmin in complete freund's adjuvant-induced Lewis rat arthritis model plasma at 30 mg/kg, po qd administered via gavage treated for 7 consecutive days measured after 24 hrs post last dose. The settings on record: read-out: Cmin.

Consider `Cc1ccc(S(=O)(=O)O)cc1.Cn1cc(Nc2nccc(N3CC4CC[C@H](C3)N4C(=O)[C@@H]3CC3(F)F)n2)cn1` (single isomer, unassigned), for which the AUC(0-inf) (in general, the area under the concentration-time curve extrapolated to infinity) in [1] came out at 1340 ng·h/mL. Further, the Cmax (usually the highest concentration seen after dosing) is 11000 nM in series [2], 774 ng/mL in series [3], 3540 nM in series [4] and 23900 nM in series [9]. For the same compound, the concentration at 24 h in series [5] is 22.1 nM; in series [7], 60 nM; in [11] it was 60 nM. In addition, the Vd in series [6] turned out to be 2 L/kg. Also, in series [8], the bioavailability – broadly, the share of a dose that reaches the circulation, judged against a reference dose that is usually intravenous – was determined as 83%. For the same compound, the clearance in series [10] amounted to 31 mL/min/kg.
